Measured values: paper PMC8512054 (Molecules, 2021)
Like-named read-outs stand apart in the source and are kept apart here.

What was measured:
[1] = BBB permeation by PAMPA method; type: in vitro ADME; conditions: for Prediction (BBB permeation): class from experimental Pe; for Effective permeability (Pe): read-out: Experimental Pe
Description: The CNS bioavailability of the molecules was further ascertained by the PAMPA method.

MAO-B [2] = biological target: T1, MAO-B (Homo sapiens, UniProt P27338); assay: MAO-B enzyme-inhibition kinetics (Lineweaver–Burk and secondary plots); type: biochemical; design: purchased Sigma-Aldrich; conditions: for Mode of MAO-B inhibition: Lineweaver–Burk plots; for Ki: from secondary plot of Lineweaver–Burk slopes
T1 sequence (P27338 1-520): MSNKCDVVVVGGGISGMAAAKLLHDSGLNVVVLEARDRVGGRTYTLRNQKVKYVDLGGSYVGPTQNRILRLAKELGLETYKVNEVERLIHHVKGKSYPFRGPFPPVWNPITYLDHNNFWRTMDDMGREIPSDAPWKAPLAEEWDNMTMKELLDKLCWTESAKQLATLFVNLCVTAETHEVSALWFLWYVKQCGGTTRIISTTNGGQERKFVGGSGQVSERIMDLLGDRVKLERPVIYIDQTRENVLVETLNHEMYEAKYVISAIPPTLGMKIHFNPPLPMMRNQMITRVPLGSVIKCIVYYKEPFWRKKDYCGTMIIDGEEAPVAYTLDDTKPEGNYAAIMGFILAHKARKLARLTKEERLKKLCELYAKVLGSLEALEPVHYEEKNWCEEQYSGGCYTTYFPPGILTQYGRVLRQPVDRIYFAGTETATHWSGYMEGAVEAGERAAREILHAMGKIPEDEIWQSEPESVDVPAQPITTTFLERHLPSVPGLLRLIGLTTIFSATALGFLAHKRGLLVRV
Description: The obtained results are represented in Figure 1.
Figure 1 Lineweaver–Burk plots for MAO-B inhibition by NEA1 and NEA3 (A,C), and their respective secondary plots (B,D) of the slopes vs. inhibitor concentrations.

MAO-B [3] = biological target: T1, MAO-B; assay: MAO-B inhibitor-reversibility analysis by dialysis; type: biochemical; design: purchased Sigma-Aldrich; conditions: for Reversibility of MAO-B inhibition: dialysis method; for Relative MAO-B activity, dialyzed (AD) / Relative MAO-B activity, undialyzed (AU): ~2 × IC50 (NEA1 0.032, NEA3 0.020, lazabemide 0.22, pargyline 0.28 μM); for Relative MAO-B activity, dialyzed (AD): dialysis 6 h; for Relative MAO-B activity, undialyzed (AU): preincubated 30 min
Procedure: The reversibility of MAO-B inhibition by NEA1 and NEA3 was evaluated using a standardized dialysis method. […] The activities in dialyzed (AD) and undialyzed (AU) samples were compared and reversibility patterns were determined.
Dialysis was performed for 6 h with a buffer change after 3 h with duplicate experiments.

BACE1 = BACE1 (Homo sapiens, UniProt P56817); assay: BACE1 activity assay kit (β-secretase, CS0010), fluorescence; conditions: for remaining activity at 10 µM: read-out: % Residual Activity (at 10 µM) BACE1
BACE1, sequence (P56817 46-501): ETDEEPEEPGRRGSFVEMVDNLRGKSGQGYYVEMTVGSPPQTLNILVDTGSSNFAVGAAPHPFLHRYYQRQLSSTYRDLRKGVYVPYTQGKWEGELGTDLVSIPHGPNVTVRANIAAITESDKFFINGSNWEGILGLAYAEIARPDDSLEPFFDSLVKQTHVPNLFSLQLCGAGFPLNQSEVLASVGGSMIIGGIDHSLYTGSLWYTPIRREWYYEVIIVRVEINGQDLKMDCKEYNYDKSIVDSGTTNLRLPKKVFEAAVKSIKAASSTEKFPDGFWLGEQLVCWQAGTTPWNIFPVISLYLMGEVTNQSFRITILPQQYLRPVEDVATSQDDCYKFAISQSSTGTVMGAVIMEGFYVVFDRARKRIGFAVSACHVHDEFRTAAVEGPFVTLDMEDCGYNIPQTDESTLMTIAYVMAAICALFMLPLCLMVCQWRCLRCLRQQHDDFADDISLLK
Procedure: (§1) MAO inhibitory assay was assessed in accordance with the previously standardized methods of assessing recombinant MAO-A and MAO-B by using the substrates (0.06 mM kynuramine and 0.3 mM benzylamine, respectively) [38, 39, 40]. […] The enzymes and chemicals were purchased from Sigma-Aldrich (St. Louis, MO, USA).
(§2) Initially, the inhibitory activities of the synthesized compounds were identified at a concentration of 10 μM against MAO-A, MAO-B, and BACE1. […] The obtained IC50 values thus compared were used to deduce the SI values.

recombinant MAO-A = biological target: T2, recombinant MAO-A (Homo sapiens, UniProt P21397); assay: MAO-A inhibitory assay (recombinant MAO-A, kynuramine substrate); conditions: for remaining activity at 10 µM: read-out: % Residual Activity (at 10 µM) MAO-A
T2 sequence (P21397 1-527): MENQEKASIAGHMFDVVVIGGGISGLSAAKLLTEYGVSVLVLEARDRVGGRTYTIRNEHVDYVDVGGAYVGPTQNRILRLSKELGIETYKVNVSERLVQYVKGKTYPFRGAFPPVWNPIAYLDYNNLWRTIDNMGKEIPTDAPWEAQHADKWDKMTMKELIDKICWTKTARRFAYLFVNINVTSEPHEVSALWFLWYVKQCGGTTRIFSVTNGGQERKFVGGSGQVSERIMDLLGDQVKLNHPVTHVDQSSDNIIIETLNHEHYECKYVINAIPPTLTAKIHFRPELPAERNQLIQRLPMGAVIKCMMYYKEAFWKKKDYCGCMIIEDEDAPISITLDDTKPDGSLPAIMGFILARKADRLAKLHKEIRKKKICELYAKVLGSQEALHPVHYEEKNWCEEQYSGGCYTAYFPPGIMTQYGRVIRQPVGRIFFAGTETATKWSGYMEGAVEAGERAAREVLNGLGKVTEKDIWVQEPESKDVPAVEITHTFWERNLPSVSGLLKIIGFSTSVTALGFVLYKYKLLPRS
Procedure: as §1, §2

MAO-B [4] = biological target: T1, MAO-B; assay: MAO-B inhibitory assay (recombinant MAO-B, benzylamine substrate); conditions: for Selectivity index (SI) for MAO-B as compared with MAO-A: from the IC50 values of MAO-A and MAO-B; for remaining activity at 10 µM: read-out: % Residual Activity (at 10 µM) MAO-B
Procedure: as §1, §2

MAO-B [5] = biological target: T1, MAO-B; design: purchased Sigma-Aldrich; method as in PMID 32246471; conditions: competitive inhibitor; read-out: Ki for MAO-B (earlier study); cited from earlier work
[6] = design: method as in PMID 29532412; conditions: PAMPA-BBB; cited from earlier work

Row | SMILES | Prediction (BBB permeation) [1] | Effective permeability (Pe) [1] [×10⁻⁶ cm/s] | Mode of MAO-B inhibition (MAO-B [2]) | Ki (MAO-B [2]) [nM] | Reversibility of MAO-B inhibition (MAO-B [3]) | Relative MAO-B activity, dialyzed (AD) (MAO-B [3]) [%] | Relative MAO-B activity, undialyzed (AU) (MAO-B [3]) [%] | IC50 (BACE1) [nM] | remaining activity at 10 µM (BACE1) [%] | IC50 (recombinant MAO-A) [nM] | remaining activity at 10 µM (recombinant MAO-A) [%] | IC50 (MAO-B [4]) [nM] | Selectivity index (SI) for MAO-B as compared with MAO-A (MAO-B [4]) | remaining activity at 10 µM (MAO-B [4]) [%] | Ki (MAO-B [5]) [nM] | Bibliography Pe [6] [×10⁻⁶ cm/s] | Experimental Pe [1] | melting point [°C]
1 | O=C(C=Cc1ccc([N+](=O)[O-])cc1)Nc1ccccc1 [NEA1, 3-(4-Nitrophenyl)-N-phenylacrylamide] | CNS+ (CNS+ (high BBB permeation predicted: Pe (10^−6 cm/s) > 4.00)) | 14.4 ± 0.35 | competitive | 13 ± 5 | reversible | 79.5 | 29.2 | 8210 ± 30 | 34.9 ± 0.5 | > 40000 | 91.9 ± 5.9 | 16 ± 1 | >2500.0 | 3.88 ± 0.6 | – | – | – | –
2 | C=CC(=O)Nc1cccc([N+](=O)[O-])c1 [AD9, N-(3-nitrophenyl)prop-2 enamide] | – | – | – | – | – | – | – | – | – | – | – | – | – | – | 39 ± 5 | – | – | –
3 | NCCc1ccc(O)c(O)c1 [Dopamine, reference compound] | CNS− (CNS− (low BBB permeation predicted: Pe (10^−6 cm/s) < 2.00)) | 0.26 ± 0.04 | – | – | – | – | – | – | – | – | – | – | – | – | – | 0.2 | – | –
4 | CN1C(C(=O)Nc2ccccn2)=C(O)c2ccccc2S1(=O)=O [Piroxicam, reference compound] | CNS± (CNS± (BBB permeation uncertain: Pe (10^−6 cm/s) from 2.00 to 4.00)) | – | – | – | – | – | – | – | – | – | – | – | – | – | – | 2.5 | 2.37 ± 0.33 ×10^−6 cm/s | –
5 | O=C(C=Cc1ccc([N+](=O)[O-])cc1)Nc1ccc(F)cc1 [NEA3, N-(4-Fluorophenyl)-3-(4-nitrophenyl)acrylamide] | CNS+ (CNS+ (high BBB permeation predicted: Pe (10^−6 cm/s) > 4.00)) | 16.4 ± 0.17 | competitive | 4.9 ± 0.2 | reversible | 79.5 | 32.8 | 8020 ± 130 | 34.4 ± 0.2 | 15200 ± 600 | 61.9 ± 0.4 | 9.2 ± 0.3 | 1652.2 | 3.04 ± 0.5 | – | – | – | 208 to 210
6 | O=C(C=Cc1ccc([N+](=O)[O-])cc1)Nc1ccc(Cl)cc1 [NEA2, N-(4-Chlorophenyl)-3-(4-nitrophenyl)acrylamide] | CNS+ (CNS+ (high BBB permeation predicted: Pe (10^−6 cm/s) > 4.00)) | 13.5 ± 0.26 | – | – | – | – | – | – | 88.1 ± 0.3 | > 40000 | 95 ± 0.5 | 5280 ± 90 | >7.58 | 35.8 ± 6.2 | – | – | – | 224 to 226
7 | CCn1cc(C(=O)O)c(=O)c2cc(F)c(N3CCNC(C)C3)c(F)c21 (stereo not drawn) [Lomefloxacin, reference compound] | CNS− (CNS− (low BBB permeation predicted: Pe (10^−6 cm/s) < 2.00)) | 1.31 ± 0.51 | – | – | – | – | – | – | – | – | – | – | – | – | – | – | – | –
8 | Cc1ccccc1NC(=O)/C=C/c1ccc([N+](=O)[O-])cc1 [NEA5, 3-(4-Nitrophenyl)-N-(O-tolyl)acrylamide] | CNS+ (CNS+ (high BBB permeation predicted: Pe (10^−6 cm/s) > 4.00)) | 15.5 ± 0.44 | – | – | – | – | – | 17700 ± 1700 | 44 ± 0.2 | > 40000 | 83.5 ± 1.3 | 38 ± 3 | >1052.6 | 8.67 ± 2.3 | – | – | – | 200 to 203
9 | O=C(C=Cc1ccc([N+](=O)[O-])cc1)NC1CCCCC1 [NEA4, N-Cyclohexyl-3-(4-nitrophenyl)acrylamide] | CNS+ (CNS+ (high BBB permeation predicted: Pe (10^−6 cm/s) > 4.00)) | 15.5 ± 0.62 | – | – | – | – | – | – | 61.2 ± 3 | > 40000 | 85.6 ± 1.7 | 74 ± 20 | >540.5 | 9.52 ± 3.5 | – | – | – | 166 to 168
